Data published in patent US10047105B2, “Gyrase inhibitors” (Merck Sharp & Dohme Corp., priority 2009, dated 2018).
≈ marks a conversion by molar mass, not a printed value.

Tests used:
Assay type in all cases: cell-based
P. aeruginosa ATCC 15692 = assay: MIC, P. aeruginosa (wt); settings: Pseudomonas aeruginosa, ATCC15692, read-out: Antibacterial Potency MIC
S. pneumoniae ATCC 51916 = assay: MIC, S. pneumoniae; settings: Streptococcus pneumoniae, ATCC51916; S. pneumoniae; read-out: Antibacterial Potency MIC
[1] = system: E. coli imp Benson BAS849; assay: microbe, parasite or virus in culture; settings: Escherichia coli, read-out: Antibacterial Potency MIC
[2] = system: E. coli ATCC 25922 (EC8 + serum); assay: MIC, E. coli + 20% mouse serum; settings: Escherichia coli, ATCC25922; E. coli + serum (20% mouse serum); read-out: Antibacterial Potency MIC
A. baumannii ATCC 19606 = assay: MIC, A. baumannii; settings: Acinetobacter baumannii, ATCC19606, read-out: Antibacterial Potency MIC
[3] = system: E. coli Δtolc BW25113 Δtolc; assay: microbe, parasite or virus in culture; settings: Escherichia coli, BW25113, read-out: Antibacterial Potency MIC
H. influenzae ATCC 49247 = assay: MIC, H. influenzae; settings: Haemophilus influenzae, ATCC49247, read-out: Antibacterial Potency MIC
S. aureus ATCC 13709 = assay: MIC, antibacterial potency, S. aureus; settings: Staphylococcus aureus, ATCC13709; S. aureus
E. coli 8 ATCC 25922 = assay: MIC, E. coli 8 (wt); settings: Escherichia coli, ATCC25922; E. coli (wt); read-out: Antibacterial Potency MIC
K. pneumoniae 11 = assay: MIC, K. pneumoniae 11; settings: Klebsiella pneumoniae, read-out: Antibacterial Potency MIC
K. pneumoniae 101 = assay: MIC, K. pneumoniae 101; settings: Klebsiella pneumoniae, read-out: Antibacterial Potency MIC
[4] = system: S. aureus ATCC 13709 (SA + serum); assay: MIC, S. aureus + 20% mouse serum; settings: Staphylococcus aureus, ATCC13709; S. aureus + serum (20% mouse serum); read-out: Antibacterial Potency MIC

CCc1[nH]c2nc(Sc3cnc4ccc[n+]([O-])c4c3)nc(N3CC[C@@H](N)C3)c2c1Cl [701,008]
MIC (P. aeruginosa ATCC 15692): 16 µg/mL (≈ 36.2 µM)
MIC (S. pneumoniae ATCC 51916): 1 µg/mL (≈ 2.26 µM)
MIC [1]: 1 µg/mL (≈ 2.26 µM)
MIC [2]: 2 µg/mL
MIC (A. baumannii ATCC 19606): 8 µg/mL (≈ 18.1 µM)
MIC [3]: ≤ 0.5 µg/mL
MIC (H. influenzae ATCC 49247): 2 µg/mL (≈ 4.53 µM)
MIC (S. aureus ATCC 13709): ≤ 0.5 µg/mL
MIC (E. coli 8 ATCC 25922): 4 µg/mL (≈ 9.05 µM)
MIC (K. pneumoniae 11): 32 µg/mL (≈ 72.4 µM)
MIC (K. pneumoniae 101): ≤ 0.5 µg/mL
MIC [4]: ≤ 0.5 µg/mL
